Legend:
[1] = test system: H. pylori PremSS1; assay: In vivo efficacy against H. pylori in infected mice (bacterial culture and qPCR of stomach); set-up: species or system C57BL/6 mice; conditions: oral, single dose per day for 14 days; ADEF 40 mg/kg, amox 30 mg/kg, PPI 150 mg/kg; bacterial culture and qPCR (Figure 8A,B)
From the text: Animals: A mouse model of H.-pylori-induced disease using pre-murine Sydney strain-1 (PremSS1) in mice C57BL/6 was extensively used in Helicobacter research. The persistence of mouse colonization, distribution, and long-lasting infection is attributable to the strain’s capabilities. For these reasons mice C57BL/6 were selected in this study. In fact, male mice with «specific pathogen-free» status (CHU of Bordeaux, Amélie Raba-Léon place, Bordeaux Cedex) at 6 weeks of age were housed in an acclimatization room for 1 week before experimentation.
Mouse gavage with H. pylori: Mice were fasted the day before the gavage days. They were force-fed with approximately 10^8 H. pylori PremSS1 in 100 µL of phosphate-buffered saline in the morning and then placed in a cage for the rest of the day under normal conditions. The gavages were carried out on three consecutive days. A bacteria viability test was accomplished post-gavage by platting a bacterial pellet on «Poly-house-made» agar for 24 h. […]
Each quarter of the mouse stomach was placed in a tube that was RNASE and DNASE free, containing 200 μL of physiological water. […] The remaining 90 µL were extracted for H. pylori quantification using qPCR. […] All samples were prepared in duplicate, and the results were expressed as cfu/mg of stomach tissue. […]

[2] = Pharmacokinetics after single oral (gavage) administration in rats; conditions: different doses (up to 150 mg/kg)
Protocol: (§1) The objective of this study was to investigate the pharmacokinetic (PK) profile of ADEF after a single oral (gavage) administration to rats at the following doses: • Low dose: 25 and 50 mg/kg of ADEF; • Mid dose: 100 mg/kg of ADEF; • High dose: 150 mg/kg of ADEF.
(§2) For comparative study, native artesunate was also included in this study, but only at a high dose of 150 mg/kg.
(§3) After a 1-week acclimation period, ADEF was administered orally to rats, and blood samples were collected at various time intervals (5, 10, 15, 30, 45, and 60 min) using K2EDTA tubes as anticoagulants. The collected tubes were then placed on wet ice. Subsequently, the samples were centrifuged at 1000× g for 10 min at 4 °C. The resulting plasma was recovered and stored frozen at temperatures below or equal to −60 °C for further analysis.
(§4) Non-compartmental analysis of the test item and its metabolite concentrations in plasma was performed by using the Phoenix® WinNonlin®6 6.4 software.

[3] = test system: Helicobacter pylori; assay: Agar disk diffusion assay; assay type: cell-based; conditions: paper disks, ~20 mg/mL
Protocol: Practically, impregnated paper disks with a determined concentration (~20 mg/mL) of ADEF were deposited on the surface of a standardized culture medium previously inoculated with a calibrated inoculum of a pure culture of H. pylori. After incubation, the Petri dishes were examined, and the diameters of the zones of inhibition surrounding the disks were measured. The obtained values were thereafter compared to the critical values of the different antimicrobial standards to determine the clinical categorization (resistant, intermediate, sensitive).

[4] = set-up: method as in earlier work; conditions: artesunate in acidic form; cited from earlier work
[5] = set-up: method as in PMID 17694524; conditions: cited from earlier work
[6] = in vivo; conditions: male, Sprague-Dawley, rat, plasma, po, 150 mg/kg
Protocol: as §1, §2, §3, §4

[7] = Solubility in simulated gastric fluid (SGF, pH 1.5); assay type: physicochemical; conditions: 0.5 g in 10 mL SGF pH 1.5, 36.5 °C, 30 min stirring
Protocol: An amount of 0.5 g of native artesunate and ADEF was dispersed in 10 mL of simulated gastric fluid (SGF, pH 1.5). All solutions were incubated at 36.5 °C under mild shaking (100 rev/min) in a G24 Environmental Incubator Shaker (New Brunswick Scientific Co., Edison, NJ, USA) for 30 min.

Row | Compound | Effect against H. pylori in infected mice [1] | Mortality or abnormal signs [2] | Inhibition zone [3] | Water solubility [4] | Stability in aqueous, acidic and basic media [5] | AUC(0-t) [6] | Cmax [6] | Tmax [6] | half-life [6] | Solubility in simulated gastric fluid [7]
1 | CC1(C)S[C@@H]2[C@H](NC(=O)[C@H](N)c3ccc(O)cc3)C(=O)N2[C@H]1C(=O)O [amox, amoxicillin] | did not exhibit a significant effect |  |  |  |  |  |  |  |  | 
2 | COc1ccnc(C[S+]([O-])c2nc3ccc(OC(F)F)cc3[nH]2)c1OC (centres unmarked) [PPI, pantoprazole] | did not exhibit a significant effect |  |  |  |  |  |  |  |  | 
3 | C[C@H]1[C@H](OC(=O)CCC(=O)O)O[C@@H]2O[C@@]3(C)CC[C@H]4[C@H](C)CC[C@@H]1[C@@]24OO3 [Native Artesunate, artesunate] |  | no mortality or abnormal signs | two distinct zones were observed | about 0.68 % (w/w) | unstable | 211 ng·h/mL | 701 ng/mL | 15 min | 18 min | did not dissolve

From PMC10342150, “Artesunate Dry Emulsion Formulation Combined with Antibiotics for Treatment of Helicobacter pylori Infections: In Vitro/In Vivo Evaluation” (International Journal of Molecular Sciences, 2023)
